Laboratory results as given in article PMC7993727, “Discovery of a novel AR/HDAC6 dual inhibitor for prostate cancer treatment” (Aging (Albany NY), 2021).

Assays:
[1] = target: T1, HDAC6 (Homo sapiens, UniProt Q9UBN7); assay: acetylation of α-tubulin (HDAC6 substrate) in VCaP cells, Western blot; format: cell-based; conditions: 24 hours
T1 sequence (Q9UBN7 1-1215): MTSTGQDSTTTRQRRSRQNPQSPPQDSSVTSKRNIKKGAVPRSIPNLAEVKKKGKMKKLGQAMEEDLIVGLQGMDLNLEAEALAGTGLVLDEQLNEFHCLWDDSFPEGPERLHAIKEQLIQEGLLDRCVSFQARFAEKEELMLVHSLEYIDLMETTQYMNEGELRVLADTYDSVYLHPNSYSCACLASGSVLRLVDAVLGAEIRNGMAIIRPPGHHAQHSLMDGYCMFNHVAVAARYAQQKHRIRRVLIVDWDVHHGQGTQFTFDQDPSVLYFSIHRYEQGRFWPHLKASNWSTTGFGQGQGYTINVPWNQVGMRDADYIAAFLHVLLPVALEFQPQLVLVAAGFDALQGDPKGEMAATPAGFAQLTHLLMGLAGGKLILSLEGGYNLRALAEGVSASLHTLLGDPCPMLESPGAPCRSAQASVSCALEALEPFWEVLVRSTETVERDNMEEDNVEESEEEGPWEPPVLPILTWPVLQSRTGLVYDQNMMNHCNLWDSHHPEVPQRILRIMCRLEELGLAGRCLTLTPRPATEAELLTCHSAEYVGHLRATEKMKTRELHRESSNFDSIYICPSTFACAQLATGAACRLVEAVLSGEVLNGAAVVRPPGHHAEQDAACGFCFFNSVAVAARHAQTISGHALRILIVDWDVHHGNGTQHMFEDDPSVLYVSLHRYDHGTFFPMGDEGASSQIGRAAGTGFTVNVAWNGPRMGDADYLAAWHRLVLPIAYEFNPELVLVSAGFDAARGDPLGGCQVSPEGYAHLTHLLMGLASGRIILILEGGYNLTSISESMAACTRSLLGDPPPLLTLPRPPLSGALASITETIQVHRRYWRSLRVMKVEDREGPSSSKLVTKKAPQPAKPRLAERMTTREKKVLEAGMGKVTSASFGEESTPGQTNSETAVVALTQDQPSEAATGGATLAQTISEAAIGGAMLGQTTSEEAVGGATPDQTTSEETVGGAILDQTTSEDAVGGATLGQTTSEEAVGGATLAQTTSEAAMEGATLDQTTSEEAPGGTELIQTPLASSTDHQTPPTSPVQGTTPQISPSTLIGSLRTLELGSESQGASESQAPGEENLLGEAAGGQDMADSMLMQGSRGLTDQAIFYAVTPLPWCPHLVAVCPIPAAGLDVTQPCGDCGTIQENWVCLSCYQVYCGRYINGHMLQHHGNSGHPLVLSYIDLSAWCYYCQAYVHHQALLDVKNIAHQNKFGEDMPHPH
Method: (§1) RNA expression level was analyzed by qRT-PCR and protein expression level was analyzed by Western blot. […] (I) Representative immunofluorescence microscopic images of VCaP cells for checking the subcellular localization of AR.
To evaluate the HDAC6 inhibition ability of Zeta55 in VCaP cells, the acetylation status of α-tubulin protein (a HDAC6 substrate) was assessed using western blot. […] We assessed the protein level of AR in VCaP cells.
The whole-cell extracts were prepared in lysis buffer with a protease inhibitor cocktail (Bimake), while the xenograft tissue extracts were prepared in 0.5% Nonidet P 40 Substitute solution (Biosharp) with cocktail protease inhibitor (Bimake). Each sample containing 30 μg of total protein was loaded onto 10% SDS-PAGE and electrotransferred onto polyvinylidene fluoride membranes. The membranes were blocked with 5% skimmed milk in PBST at room temperature for 2 hours and incubated with primary antibodies at 4° C overnight. After the membranes were washed with PBST three times, they were incubated with horseradish peroxidase-conjugated anti-rabbit or anti-mouse secondary antibody at room temperature for 1 hour. Chemiluminescent detection was performed with WesternBright ECL (Advansta). The immunoblots were visualized using the FluorChem FC3 system (ProteinSimple).

[2] = test system: TMPRSS2; assay: TMPRSS2 mRNA (qRT-PCR) and protein (Western blot) expression in VCaP cells; format: cell-based; conditions: 10 nM DHT, 24 hours
Method: as §1
(§2) The RNA of VCaP cells was extracted using a Simply P Total RNA Extraction kit (Bioer technology) and cDNA was synthesized using a SMARTer PCR cDNA Synthesis Kit (Clontech). PSA and β-actin primers were synthesized by Sangon Biotech according to previous literature. Real-time PCR was performed using the PowerUp SYBR™ Green kit (ThermoFisher). The PCR program was run on a LightCycler 480II (Roche) and set as follows: 2 minutes at 95° C followed by 40 cycles of 30 seconds at 95° C, 15 seconds at 60° C and 30 seconds at 72° C. Data were quantified using the 2-ΔΔCt method based on the Ct values of PSA and β-actin from two parallel experiments performed in triplicate.
(§3) The whole-cell extracts were prepared in lysis buffer with a protease inhibitor cocktail (Bimake), while the xenograft tissue extracts were prepared in 0.5% Nonidet P 40 Substitute solution (Biosharp) with cocktail protease inhibitor (Bimake). Each sample containing 30 μg of total protein was loaded onto 10% SDS-PAGE and electrotransferred onto polyvinylidene fluoride membranes. […]

[3] = parameters: method as in PMID 27590197; conditions: rats; cited from earlier work
[4] = test system: PSA; assay: PSA mRNA (qRT-PCR) and protein (Western blot) expression in VCaP cells; format: cell-based; conditions: 10 nM DHT, 24 hours
Method: as §1, §2, §3

For `CNC(=O)c1ccc(N2C(=S)N(c3ccc(C#N)c(C(F)(F)F)c3)C(=O)C2(C)C)cc1F` [MDV3100, reference compound], the α-tubulin acetylation [1] is listed as “did not”, the “DHT-induced endogenous mRNA and protein expression of TMPRSS2” value [2] is listed as “significantly suppressed” and the oral bioavailability [3] is listed as 97%. For the same molecule, the plasma half-life [3] was 8.56 h and the “DHT-induced endogenous mRNA and protein expression of PSA” value [4] was “significantly suppressed”.
